One experiment concerns UO-31 renal. In words: NCI-60 cell line screen, 48 h.
A further experiment deals with MDA-MB-231 breast. As to the kind of experiment: NCI-60 cell line screen, 48 h.

Structures are written as SMILES. “And” between values parts separate entries of the source, which are not always exact repeats. Equal values may be shown once.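 Step 1: Grow cells in 96-well plates. Step 2: Expose to compound for 48 hours at 5 concentrations. Step 3: Interpolate endpoints linearly; if unreached, use highest concentration. At the GI50, growth is halved. At the TGI there is no net growth.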 Bounds are passed on as bounds.

In PubChem BioAssay (NCI) one finds TGI and GI50 data, which are given here for 39 compounds.

As to `COc1ccccc1NC(=S)Nc1cc(C)ccn1`, the TGI with UO-31 renal is above 100 µM; in the experiment with MDA-MB-231 breast, 60.7 µM. Take `CN(C)c1ccc(C(=NN)c2ccc(N(C)C)cc2)cc1`: the TGI was above 100 µM in the experiment on UO-31 renal and 10 µM in the experiment with MDA-MB-231 breast.

Compound `CC(=O)Oc1c2oc3cc(O)c(O)cc3c2c(OC(C)=O)c2oc3cc(O)c(O)cc3c12` displayed a TGI in the experiment with UO-31 renal of 42 µM. In the case of `O=C1C(Cl)=C(N2CCN(c3ccccn3)CC2)C(=O)c2ncccc21`, the TGI with UO-31 renal came to 3.3 µM; in the experiment with MDA-MB-231 breast, 3.39 µM.

In the case of `CC(Oc1ccccc1Cl)C(=O)NN1C(=O)CSC1c1ccc(Cl)cc1` (stereo not drawn), the TGI was above 100 µM with UO-31 renal and 32.7 µM with MDA-MB-231 breast.

Consider `O=[N+]([O-])c1sc2ccc(Cl)cc2c1Nc1ccc(Cl)cc1`, for which the TGI in the experiment with UO-31 renal and in the experiment on MDA-MB-231 breast was above 100 µM each time. Take `O=C(O)CCC(NC(=O)c1ccc(CNc2nc3ccccc3nc2C(=O)O)cc1)C(=O)O` (stereo not drawn): the TGI in the experiment on UO-31 renal and in the experiment on MDA-MB-231 breast was above 100 µM throughout. `C[C@]12CC/C(=N\OCCN3CCCCC3)C=C1CCC1C2CC[C@@]2(C)C1CC[C@]2(C)O` (stereo partly drawn): the TGI in the experiment on UO-31 renal is 23.2 µM; in the experiment with MDA-MB-231 breast, 28.2 µM.

Regarding `COCCOCCOCCOc1ccc(C(C#N)N(CCc2ccccc2)C(=O)c2cc(C(=O)N(CCc3ccccc3)C(C#N)c3ccc(OCCOCCOCCOC)cc3)cc(C(=O)N(CCc3ccccc3)C(C#N)c3ccc(OCCOCCOCCOC)cc3)c2)cc1` (stereo not drawn), the TGI with UO-31 renal and in the experiment with MDA-MB-231 breast was above 100 µM throughout. As for `CCCCCCCCCc1c(O)c(O)c(CCCCCCCCC)c(CCCCCCCCC)c1CCCCCCCCC`, the TGI in the experiment on MDA-MB-231 breast is above 100 µM.

In the case of `O=C(CN(c1ccc(S(=O)(=O)O)cc1)c1ccc(S(=O)(=O)O)cc1)Nn1cnc2ccc(S(=O)(=O)N(c3ccc(S(=O)(=O)O)cc3)c3ccc(S(=O)(=O)O)cc3)cc2c1=O`, the TGI in the experiment with UO-31 renal and in the experiment on MDA-MB-231 breast was above 100 µM each time. Take `CC(C)CN(CC#N)CC(C)C`: the TGI in the experiment with UO-31 renal and with MDA-MB-231 breast was above 100 µM each time. For the compound `CC(=O)Nc1ccc2cc3[nH]c4cc(NC(C)=O)ccc4c3nc2c1`, the TGI in the experiment on UO-31 renal and in the experiment with MDA-MB-231 breast was above 100 µM in each case.

`O=C(O)C12C3CCC(O3)C1(C(=O)O)C1CCC2O1` (stereo not drawn) registered a TGI with UO-31 renal above 100 µM. Moreover, in the experiment with MDA-MB-231 breast, the GI50 was 42.2 µM and 85.8 µM; the TGI is above 100 µM. On to `O=C(/C=C/c1ccc(O)c(O)c1)NCCc1ccc(-c2ccccc2)cc1`, for which the TGI in the experiment on UO-31 renal is above 100 µM. For `CN(C)c1ccc(C2ON=C(c3ccccc3)N2C23CC4CC(CC(C4)C2)C3)cc1` (stereo not drawn), the TGI with MDA-MB-231 breast is above 10 µM. As for `NC(N)=NS(=O)(=O)c1ccc(NC(=O)c2ccc3[nH]c4ccccc4c(=O)c3c2)cc1`, the TGI in the experiment on UO-31 renal and with MDA-MB-231 breast was above 100 µM each time. Turning to `COC(=O)c1c2c(cc3c1CC1(Cc4cc5c(cc4C1)CCC5)C3)CCC2`, the TGI in the experiment on UO-31 renal and in the experiment with MDA-MB-231 breast was above 100 µM in each case. As to `N#Cc1c(N)c(C#N)c2c(c1-c1ccc(Cl)cc1)COc1ccccc1-2`, the TGI in the experiment with UO-31 renal is 13 µM; in the experiment with MDA-MB-231 breast, 92.3 µM. Regarding `OC(c1ccccc1)C(F)(F)c1nc2ccccc2o1` (stereo not drawn), the TGI in the experiment on UO-31 renal and in the experiment with MDA-MB-231 breast was above 100 µM in each case. For `Cn1c(-c2ccc(N=NNc3ccc(-c4n[nH]c(=S)n4C)cc3)cc2)n[nH]c1=S`, the TGI in the experiment with MDA-MB-231 breast came out at 43.4 µM.

Turning to `N#Cc1c(-c2ccccc2)c(C#N)c(=O)n(C2OC(CO)C(O)C(O)C2O)c1S` (stereo not drawn), the TGI in the experiment on UO-31 renal and in the experiment with MDA-MB-231 breast was above 100 µM throughout. `C=C1CC(CN2CCC(=O)NC2=O)(c2ccccc2)OC1=O` (stereo not drawn): the TGI turned out to be 32.3 µM in the experiment with UO-31 renal and 32.1 µM in the experiment on MDA-MB-231 breast.

Turning to `CC(C)(C)NC(=O)C12C3C4C1C1C2C3C41C(=O)NC(C)(C)C` (stereo not drawn), the TGI in the experiment on UO-31 renal and in the experiment with MDA-MB-231 breast was above 100 µM throughout. In the case of `O=S(=O)(OI(O)CC(F)(F)F)C(F)(F)F`, the TGI in the experiment on UO-31 renal and in the experiment with MDA-MB-231 breast was above 100 µM throughout. As to `CC(NC(NC(C)C12CC3CC(CC(C3)C1)C2)=C(C(Cl)=C(Cl)Cl)[N+](=O)[O-])C12CC3CC(CC(C3)C1)C2` (stereo not drawn), the TGI in the experiment on UO-31 renal is above 100 µM; in the experiment with MDA-MB-231 breast it was 16 µM.

For the compound `O=C(Nn1cnn2c(=O)c3ccccc3nc2c1=O)c1ccccc1`, the TGI in the experiment with UO-31 renal and in the experiment with MDA-MB-231 breast was above 100 µM in each case. For `NC(N)=NC(N)=Nc1ccccc1` (tested in a mixture with another compound), the TGI in the experiment with UO-31 renal and with MDA-MB-231 breast was above 100 µM throughout. As for `CC(=O)O[C@@H]1O[Si](C(C)(C)C)(C(C)(C)C)[C@H](C)[C@H]1C`, the TGI with UO-31 renal and with MDA-MB-231 breast was above 100 µM in each case. As to `CCOC(=O)c1[nH]c2nc(SC)nc(Nc3ccccc3Cl)c2c1N`, the results for the TGI in the experiment with UO-31 renal and in the experiment on MDA-MB-231 breast were 42.7 µM and 59.3 µM, respectively. As for `COC(=O)c1c(C(=O)OC)c2c3ccccc3n(C)c2c2c1c1ccccc1n2C`, the TGI with UO-31 renal and in the experiment on MDA-MB-231 breast was above 100 µM in each case. For `C=CCn1cnc2c(=O)[nH]c(Nc3ccccc3)nc21`, the TGI with UO-31 renal and in the experiment with MDA-MB-231 breast was above 100 µM throughout. For `COc1ccc2c(-c3ccc(O)cc3)c(Oc3ccc(Cl)cc3)c(=O)oc2c1`, the results for the TGI with UO-31 renal and in the experiment with MDA-MB-231 breast were 13.6 µM and 20.6 µM, respectively. On to `C=C1CC(COc2ccc3c(C)cc(=O)oc3c2)(c2ccccc2)OC1=O` (stereo not drawn), for which the values for the TGI in the experiment on UO-31 renal and in the experiment with MDA-MB-231 breast were 14.5 µM and 9.07 µM, respectively. Consider `COC(=O)c1cc(C)n(CN(Cc2ccccc2)Cn2nc(C(=O)OC)cc2C)n1`, for which the TGI is above 92.1 µM in the experiment with UO-31 renal and above 100 µM in the experiment with MDA-MB-231 breast. As to `CC(=O)Oc1c(C)c2c(c3ccccc13)OC(C)(C)C2`, the TGI was found to be 33.1 µM in the experiment on UO-31 renal and 48.6 µM with MDA-MB-231 breast. For `BrCC(Br)(c1ccccc1)c1ccccc1-c1cc(-c2ccccc2)cc(-c2ccccc2)n1` (stereo not drawn), in that order: 26.8 µM and 11.4 µM. `COC(=O)[C@@H]1Cc2cc(O)c(O)cc2C2(CCN(C)CC2)O1`: the TGI with MDA-MB-231 breast was above 10 µM. Regarding `Cn1c(=O)oc2cc(Br)ccc21`, the TGI with UO-31 renal and in the experiment with MDA-MB-231 breast was above 100 µM throughout.
